PubChem BioAssay (NCI)
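48-hour exposure; five concentrations; linearly interpolated endpoints. Here, GI50 denotes the concentration required for 50% inhibition of growth. Definition used: TGI = concentration required for complete inhibition of growth.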

Legend:
Assay in all cases: NCI anticancer screen, dose series, 48 h
786-0 renal = test system: 786-0 renal
A549 NSCLC = test system: A549 NSCLC
ACHN renal = test system: ACHN renal
BT-549 breast = test system: BT-549 breast
CCRF-CEM leukemia = test system: CCRF-CEM leukemia
COLO 205 colon = test system: COLO 205 colon
DU-145 prostate = test system: DU-145 prostate
EKVX NSCLC = test system: EKVX NSCLC
HCC-2998 colon = test system: HCC-2998 colon
HCT-116 colon = test system: HCT-116 colon
HCT-15 colon = test system: HCT-15 colon
HOP-62 NSCLC = test system: HOP-62 NSCLC
HOP-92 NSCLC = test system: HOP-92 NSCLC
HS 578T breast = test system: HS 578T breast
HT29 colon = test system: HT29 colon
IGROV1 ovarian = test system: IGROV1 ovarian
K-562 leukemia = test system: K-562 leukemia
KM12 colon = test system: KM12 colon
LOX IMVI melanoma = test system: LOX IMVI melanoma
MCF7 breast = test system: MCF7 breast
MDA-MB-231 breast = test system: MDA-MB-231 breast
MOLT-4 leukemia = test system: MOLT-4 leukemia
NCI-H226 lung = test system: NCI-H226 lung
NCI-H23 lung = test system: NCI-H23 lung
NCI-H460 lung = test system: NCI-H460 lung
NCI/ADR-RES ovarian = test system: NCI/ADR-RES ovarian
OVCAR-3 ovarian = test system: OVCAR-3 ovarian
OVCAR-4 ovarian = test system: OVCAR-4 ovarian
OVCAR-5 ovarian = test system: OVCAR-5 ovarian
OVCAR-8 ovarian = test system: OVCAR-8 ovarian
PC-3 prostate = test system: PC-3 prostate
RPMI-8226 leukemia = test system: RPMI-8226 leukemia
RXF 393 renal = test system: RXF 393 renal
SF-295 CNS = test system: SF-295 CNS
SF-539 CNS = test system: SF-539 CNS
SK-MEL-2 melanoma = test system: SK-MEL-2 melanoma
SK-MEL-28 melanoma = test system: SK-MEL-28 melanoma
SK-MEL-5 melanoma = test system: SK-MEL-5 melanoma
SK-OV-3 ovarian = test system: SK-OV-3 ovarian
SN12C renal = test system: SN12C renal
SNB-19 CNS = test system: SNB-19 CNS
SNB-75 CNS = test system: SNB-75 CNS
SR leukemia = test system: SR leukemia
SW-620 colon = test system: SW-620 colon
T-47D breast = test system: T-47D breast
TK-10 renal = test system: TK-10 renal
U251 CNS = test system: U251 CNS
UACC-62 melanoma = test system: UACC-62 melanoma
UO-31 renal = test system: UO-31 renal

Work on `C/C(=C\c1cnc(C)s1)[C@@H]1C[C@@H]2O[C@@H]2CCC[C@H](C)[C@H](O)[C@@H](C)C(=O)C(C)(C)[C@@H](O)CC(=O)O1` yielded a GI50 (786-0 renal) of under 10 nM, a TGI (786-0 renal) of over 100000 nM and a GI50 (A549 NSCLC) of under 10 nM. For the same molecule, the TGI (A549 NSCLC) was over 100000 nM, the GI50 (ACHN renal) was under 10 nM and the TGI (ACHN renal) was over 100000 nM. It also gave a GI50 (BT-549 breast) of under 10 nM, a TGI (BT-549 breast) of over 100000 nM and a GI50 (CCRF-CEM leukemia) of under 10 nM. The TGI (CCRF-CEM leukemia) was over 100000 nM, the GI50 (COLO 205 colon) was under 10 nM and the TGI (COLO 205 colon) was 30.4 nM. For the same molecule, the GI50 (DU-145 prostate) was under 10 nM, the TGI (DU-145 prostate) was over 100000 nM and the GI50 (EKVX NSCLC) was 12.7 nM. It also gave a TGI (EKVX NSCLC) of over 100000 nM, a GI50 (HCC-2998 colon) of 10.3 nM and a TGI (HCC-2998 colon) of over 100000 nM. The GI50 (HCT-116 colon) was under 10 nM, the TGI (HCT-116 colon) was over 100000 nM and the GI50 (HCT-15 colon) was under 10 nM. The TGI (HCT-15 colon) was over 100000 nM, the GI50 (HOP-62 NSCLC) was under 12.7 nM and the TGI (HOP-62 NSCLC) was over 100000 nM. The GI50 (HOP-92 NSCLC) was under 16.2 nM, the TGI (HOP-92 NSCLC) was over 100000 nM and the GI50 (HS 578T breast) was 11.7 nM. The TGI (HS 578T breast) was over 100000 nM, the GI50 (HT29 colon) was under 10 nM and the TGI (HT29 colon) was over 100000 nM. For the same molecule, the GI50 (IGROV1 ovarian) was 10.3 nM, the TGI (IGROV1 ovarian) was over 100000 nM and the GI50 (K-562 leukemia) was under 10 nM. The TGI (K-562 leukemia) was over 100000 nM, the GI50 (KM12 colon) was under 10 nM and the TGI (KM12 colon) was over 100000 nM. The GI50 (LOX IMVI melanoma) was under 10 nM, the TGI (LOX IMVI melanoma) was over 100000 nM and the GI50 (MCF7 breast) was under 10 nM. The TGI (MCF7 breast) was over 100000 nM, the GI50 (MDA-MB-231 breast) was under 14.8 nM and the TGI (MDA-MB-231 breast) was over 100000 nM. It also gave a GI50 (MOLT-4 leukemia) of under 10 nM, a TGI (MOLT-4 leukemia) of over 100000 nM and a TGI (NCI-H226 lung) of over 100000 nM. It also gave a GI50 (NCI-H23 lung) of under 10 nM, a TGI (NCI-H23 lung) of over 100000 nM and a GI50 (NCI-H460 lung) of under 10 nM. The TGI (NCI-H460 lung) was over 100000 nM, the GI50 (NCI/ADR-RES ovarian) was 22.8 nM and the TGI (NCI/ADR-RES ovarian) was over 100000 nM. The GI50 (OVCAR-3 ovarian) was under 10 nM, the TGI (OVCAR-3 ovarian) was over 100000 nM and the TGI (OVCAR-4 ovarian) was over 100000 nM. For the same molecule, the GI50 (OVCAR-5 ovarian) was under 10 nM, the TGI (OVCAR-5 ovarian) was over 100000 nM and the GI50 (OVCAR-8 ovarian) was under 10 nM. For the same molecule, the TGI (OVCAR-8 ovarian) was over 100000 nM, the GI50 (PC-3 prostate) was under 10 nM and the TGI (PC-3 prostate) was over 100000 nM. The GI50 (RPMI-8226 leukemia) was under 10 nM, the TGI (RPMI-8226 leukemia) was over 100000 nM and the GI50 (RXF 393 renal) was under 10 nM. For the same molecule, the TGI (RXF 393 renal) was over 100000 nM, the GI50 (SF-295 CNS) was 10.2 nM and the TGI (SF-295 CNS) was over 100000 nM. The GI50 (SF-539 CNS) was under 10 nM, the TGI (SF-539 CNS) was over 100000 nM and the GI50 (SK-MEL-2 melanoma) was under 14.6 nM. For the same molecule, the TGI (SK-MEL-2 melanoma) was over 100000 nM, the GI50 (SK-MEL-28 melanoma) was over 100000 nM and the TGI (SK-MEL-28 melanoma) was over 100000 nM. The GI50 (SK-MEL-5 melanoma) was under 10 nM, the TGI (SK-MEL-5 melanoma) was over 100000 nM and the GI50 (SK-OV-3 ovarian) was under 12.5 nM. It also gave a TGI (SK-OV-3 ovarian) of over 100000 nM, a GI50 (SN12C renal) of under 10 nM and a TGI (SN12C renal) of over 100000 nM. The GI50 (SNB-19 CNS) was under 10 nM, the TGI (SNB-19 CNS) was over 100000 nM and the GI50 (SNB-75 CNS) was under 10 nM. The GI50 (SR leukemia) was under 10 nM, the TGI (SR leukemia) was over 100000 nM and the GI50 (SW-620 colon) was under 10 nM. The TGI (SW-620 colon) was over 100000 nM, the GI50 (T-47D breast) was 17.1 nM and the TGI (T-47D breast) was over 100000 nM. For the same molecule, the GI50 (TK-10 renal) was 936 nM, the TGI (TK-10 renal) was over 100000 nM and the GI50 (U251 CNS) was under 10 nM. For the same molecule, the TGI (U251 CNS) was over 100000 nM, the GI50 (UACC-62 melanoma) was under 10 nM and the TGI (UACC-62 melanoma) was over 100000 nM. The GI50 (UO-31 renal) was under 10.5 nM and the TGI (UO-31 renal) was over 100000 nM.
